Molecular target: human PDE1B enzyme (Homo sapiens (Human), UniProt Q01064)
Assay: IMAP TR-FRET PDE1B enzymatic assay
Format: biochemical
Settings: negative log of half-maximal molar inhibitory concentration, 200 nM FAM-cAMP, values given as bins; for IC50: read-out: PDE1b (pIC50) (converted)
How it was run: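 Full-length GST-tagged human PDE1B (250 pg/well) in IMAP BSA buffer with 10 U/ml calmodulin and 2.5 mM CaCl2; compound pre-incubated 5 min at room temperature, then 200 nM (final) FAM-cAMP for 30 min. IMAP binding reagent/Tb added, 1 h; TR-FRET 520/490 ratio read. IC50 from sigmoidal dose-response fit.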

Compound | IC50 [nM] | PDE1b (pIC50)
Cc1oc2ncnc(NC3(C)CC3)c2c1C(=O)N(C)Cc1ncco1 [Example 692, N,6-Dimethyl-4-[(1-methylcyclopropyl)amino]-N-(1,3-oxazol-2-ylmethyl)furo[2,3-d]pyrimidine-5-carboxamide] | 100 to 1000 | –
Cc1oc2ncnc(NC3(C)CC3)c2c1C(=O)NCCc1cnc(C2CC2)nc1 [Example 693, N-[2-(2-Cyclopropylpyrimidin-5-yl)ethyl]-6-methyl-4-[(1-methylcyclopropyl)amino]furo[2,3-d]pyrimidine-5-carboxamide] | 100 to 1000 | –
Cc1oc2ncnc(NC3(C)CC3)c2c1C(=O)N1CCn2c(C3CC3)nc(Cl)c2C1 [Example 694, 5-{1-Chloro-3-cyclopropyl-5H,6H,7H,8H-imidazo[1,5-a]pyrazine-7-carbonyl}-6-methyl-N-(1-methylcyclopropyl)furo[2,3-d]pyrimidin-4-amine] | 10 to 100 | –
Cc1oc2ncnc(NC3(C)CC3)c2c1C(=O)N1CCn2c(C3CC3)nc(I)c2C1 [Example 695, 5-{3-Cyclopropyl-1-iodo-5H,6H,7H,8H-imidazo[1,5-a]pyrazine-7-carbonyl}-6-methyl-N-(1-methylcyclopropyl)furo[2,3-d]pyrimidin-4-amine] | 10 to 100 | –
Cc1oc2ncnc(NC3(C)CC3)c2c1C(=O)NCc1ncc(C(F)(F)F)cn1 [Example 696, 6-Methyl-4-[(1-methylcyclopropyl)amino]-N-{[5-(trifluoromethyl)pyrimidin-2-yl]methyl}furo[2,3-d]pyrimidine-5-carboxamide] | 10 to 100 | –
Cc1cccc(CNC(=O)c2c(C)oc3ncnc(NC4(C)CC4)c23)n1 [Example 697, 6-Methyl-4-[(1-methylcyclopropyl)amino]-N-[(6-methylpyridin-2-yl)methyl]furo[2,3-d]pyrimidine-5-carboxamide] | 10 to 100 | –
COc1ncc(CNC(=O)c2c(C)oc3ncnc(NC4(C)CC4)c23)cn1 [Example 698, N-[(2-Methoxypyrimidin-5-yl)methyl]-6-methyl-4-[(1-methylcyclopropyl)amino]furo[2,3-d]pyrimidine-5-carboxamide] | – | >8
COc1ncc2c(n1)CN(C(=O)c1c(C)oc3ncnc(NC4(C)CC4)c13)CC2 [Example 699, 5-{2-Methoxy-5H,6H,7H,8H-pyrido[3,4-d]pyrimidine-7-carbonyl}-6-methyl-N-(1-methylcyclopropyl)furo[2,3-d]pyrimidin-4-amine] | 100 to 1000 | –
Cc1csc(CN(C)C(=O)c2c(C)oc3ncnc(NC4(C)CC4)c23)n1 [Example 700, N,6-Dimethyl-N-[(4-methyl-1,3-thiazol-2-yl)methyl]-4-[(1-methylcyclopropyl)amino]furo[2,3-d]pyrimidine-5-carboxamide] | 10 to 100 | –
Cc1oc2ncnc(NC3(C)CC3)c2c1C(=O)N(C)Cc1nccs1 [Example 701, N,6-Dimethyl-4-[(1-methylcyclopropyl)amino]-N-(1,3-thiazol-2-ylmethyl)furo[2,3-d]pyrimidine-5-carboxamide] | 100 to 1000 | –
Cc1cnc(CN(C)C(=O)c2c(C)oc3ncnc(NC4(C)CC4)c23)s1 [Example 702, N,6-Dimethyl-N-[(5-methyl-1,3-thiazol-2-yl)methyl]-4-[(1-methylcyclopropyl)amino]furo[2,3-d]pyrimidine-5-carboxamide] | 10 to 100 | –
Cc1csc(CNC(=O)c2c(C)oc3ncnc(NC4(C)CC4)c23)n1 [Example 703, 6-Methyl-N-[(4-methyl-1,3-thiazol-2-yl)methyl]-4-[(1-methylcyclopropyl)amino]furo[2,3-d]pyrimidine-5-carboxamide] | 10 to 100 | –
Cc1oc2ncnc(NC3(C)CC3)c2c1C(=O)NCc1nc(C(F)(F)F)cs1 [Example 704, 6-Methyl-4-[(1-methylcyclopropyl)amino]-N-{[4-(trifluoromethyl)-1,3-thiazol-2-yl]methyl}furo[2,3-d]pyrimidine-5-carboxamide] | – | >8
Cc1cnc(CNC(=O)c2c(C)oc3ncnc(NC4(C)CC4)c23)nc1 [Example 705, 6-Methyl-4-[(1-methylcyclopropyl)amino]-N-[(5-methylpyrimidin-2-yl)methyl]furo[2,3-d]pyrimidine-5-carboxamide] | – | >8
Cc1oc2ncnc(NC3(C)CC3)c2c1C(=O)NCc1ncc(C(F)F)cn1 [Example 706, N-{[5-(Difluoromethyl)pyrimidin-2-yl]methyl}-6-methyl-4-[(1-methylcyclopropyl)amino]furo[2,3-d]pyrimidine-5-carboxamide] | 10 to 100 | –
Cc1oc2ncnc(NC3(C)CC3)c2c1C(=O)NCc1nccc(C(F)F)n1 [Example 707, N-{[4-(Difluoromethyl)pyrimidin-2-yl]methyl}-6-methyl-4-[(1-methylcyclopropyl)amino]furo[2,3-d]pyrimidine-5-carboxamide] | 10 to 100 | –
Cc1oc2ncnc(NC3(C)CC3)c2c1C(=O)NCc1cnc(C2CC2)nc1 [Example 708, N-[(2-Cyclopropylpyrimidin-5-yl)methyl]-6-methyl-4-[(1-methylcyclopropyl)amino]furo[2,3-d]pyrimidine-5-carboxamide] | – | >8

Compound | IC50 [nM] | PDE1b (pIC50)
COc1nc(C)nc2c1CN(C(=O)c1c(C)oc3ncnc(NC4(C)CC4)c13)C2 [Example 709, 5-{4-Methoxy-2-methyl-5H,6H,7H-pyrrolo[3,4-d]pyrimidine-6-carbonyl}-6-methyl-N-(1-methylcyclopropyl)furo[2,3-d]pyrimidin-4-amine] | 100 to 1000 | –
Cc1oc2ncnc(NC3(C)CC3)c2c1C(=O)NC(C)c1cncnc1 (stereo not drawn) [Example 710, 6-Methyl-4-[(1-methylcyclopropyl)amino]-N-[1-(pyrimidin-5-yl)ethyl]furo[2,3-d]pyrimidine-5-carboxamide] | 10 to 100 | –
COc1ccc(CNC(=O)c2c(C)oc3ncnc(NC4(C)CC4)c23)nn1 [Example 711, N-[(6-Methoxypyridazin-3-yl)methyl]-6-methyl-4-[(1-methylcyclopropyl)amino]furo[2,3-d]pyrimidine-5-carboxamide] | 10 to 100 | –
COc1nc(C)nc2c1CN(C(=O)c1c(C)oc3ncnc(NC4(C)CC4)c13)CC2 [Example 712, 5-{4-Methoxy-2-methyl-5H,6H,7H,8H-pyrido[4,3-d]pyrimidine-6-carbonyl}-6-methyl-N-(1-methylcyclopropyl)furo[2,3-d]pyrimidin-4-amine] | 10 to 100 | –
Cc1oc2ncnc(NC3(C)CC3)c2c1C(=O)NCc1ncco1 [Example 713, 6-Methyl-4-[(1-methylcyclopropyl)amino]-N-(1,3-oxazol-2-ylmethyl)furo[2,3-d]pyrimidine-5-carboxamide] | 10 to 100 | –
COc1ccc2oc(CNC(=O)c3c(C)oc4ncnc(NC5(C)CC5)c34)nc2c1 [Example 714, N-[(5-Methoxy-1,3-benzoxazol-2-yl)methyl]-6-methyl-4-[(1-methylcyclopropyl)amino]furo[2,3-d]pyrimidine-5-carboxamide] | – | >8
Cc1oc2ncnc(NC3(C)CC3)c2c1C(=O)NCc1nccn1C [Example 715, 6-Methyl-N-[(1-methyl-1H-imidazol-2-yl)methyl]-4-[(1-methylcyclopropyl)amino]furo[2,3-d]pyrimidine-5-carboxamide] | 10 to 100 | –
Cc1oc2ncnc(NC3(C)CC3)c2c1C(=O)NCc1ncc(Cl)cn1 [Example 716, N-[(5-Chloropyrimidin-2-yl)methyl]-6-methyl-4-[(1-methylcyclopropyl)amino]furo[2,3-d]pyrimidine-5-carboxamide] | – | >8
Cc1nnc(CNC(=O)c2c(C)oc3ncnc(NC4(C)CC4)c23)o1 [Example 717, 6-Methyl-N-[(5-methyl-1,3,4-oxadiazol-2-yl)methyl]-4-[(1-methylcyclopropyl)amino]furo[2,3-d]pyrimidine-5-carboxamide] | 10 to 100 | –
Cc1ccc(CNC(=O)c2c(C)oc3ncnc(NC4(C)CC4)c23)nn1 [Example 718, 6-Methyl-4-[(1-methylcyclopropyl)amino]-N-[(6-methylpyridazin-3-yl)methyl]furo[2,3-d]pyrimidine-5-carboxamide] | 10 to 100 | –
Cc1oc2ncnc(NC3(C)CC3)c2c1C(=O)NCc1cn2ccnc2cn1 [Example 719, N-{Imidazo[1,2-a]pyrazin-6-ylmethyl}-6-methyl-4-[(1-methylcyclopropyl)amino]furo[2,3-d]pyrimidine-5-carboxamide] | 10 to 100 | –
Cc1oc2ncnc(NC3(C)CC3)c2c1C(=O)NC1CN(c2ccncn2)C1 [Example 720, 6-Methyl-4-[(1-methylcyclopropyl)amino]-N-[1-(pyrimidin-4-yl)azetidin-3-yl]furo[2,3-d]pyrimidine-5-carboxamide] | 100 to 1000 | –
Cc1oc2ncnc(NC3(C)CC3)c2c1C(=O)Nc1ccc(C2CCOCC2)cc1 [Example 721, 6-Methyl-4-[(1-methylcyclopropyl)amino]-N-[4-(oxan-4-yl)phenyl]furo[2,3-d]pyrimidine-5-carboxamide] | 100 to 1000 | –
Cc1oc2ncnc(NC3(C)CC3)c2c1C(=O)NCc1ccc(OC(F)(F)F)cc1 [Example 722, 6-Methyl-4-[(1-methylcyclopropyl)amino]-N-{[4-(trifluoromethoxy)phenyl]methyl}furo[2,3-d]pyrimidine-5-carboxamide] | 10 to 100 | –
Cc1oc2ncnc(NC3(C)CC3)c2c1C(=O)NCc1ccc(OC(F)(F)F)cc1F [Example 723, N-{[2-Fluoro-4-(trifluoromethoxy)phenyl]methyl}-6-methyl-4-[(1-methylcyclopropyl)amino]furo[2,3-d]pyrimidine-5-carboxamide] | 10 to 100 | –
Cc1oc2ncnc(NC3(C)CC3)c2c1C(=O)NCCc1nc2cc(F)ccc2[nH]1 [Example 724, N-[2-(5-Fluoro-1H-1,3-benzodiazol-2-yl)ethyl]-6-methyl-4-[(1-methylcyclopropyl)amino]furo[2,3-d]pyrimidine-5-carboxamide] | 10 to 100 | –
